Counter-ions that a name gives are not always drawn.

As usually defined, the IC50 is the point on the concentration scale where inhibition reaches its midpoint.

T1 sequence (P21836 32-614): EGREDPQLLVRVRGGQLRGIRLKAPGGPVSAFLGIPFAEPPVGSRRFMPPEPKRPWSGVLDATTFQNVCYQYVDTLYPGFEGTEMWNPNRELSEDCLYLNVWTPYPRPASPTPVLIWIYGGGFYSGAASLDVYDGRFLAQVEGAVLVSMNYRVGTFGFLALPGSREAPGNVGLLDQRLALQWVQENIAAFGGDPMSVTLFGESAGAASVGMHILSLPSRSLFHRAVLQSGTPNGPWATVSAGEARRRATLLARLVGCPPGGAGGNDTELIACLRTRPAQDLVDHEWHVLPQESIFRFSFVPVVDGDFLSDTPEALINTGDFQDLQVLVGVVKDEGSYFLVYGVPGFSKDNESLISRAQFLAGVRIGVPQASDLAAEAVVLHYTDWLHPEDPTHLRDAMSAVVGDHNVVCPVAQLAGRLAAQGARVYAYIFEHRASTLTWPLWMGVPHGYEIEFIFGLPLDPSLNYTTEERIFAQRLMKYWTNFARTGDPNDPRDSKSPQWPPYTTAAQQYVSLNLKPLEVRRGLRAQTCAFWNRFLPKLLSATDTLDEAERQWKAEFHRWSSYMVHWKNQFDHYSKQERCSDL

The first assay addresses T1, acetylcholinesterase (Mus musculus, UniProt P21836).
T1 construct: A mouse brain homogenate was used as an acetylcholinesterase source; from tissue; host or cells: mouse brain homogenate
Briefly: biochemical. The class given is biochemical.
Details: not given
Turning to `O=C1c2cccnc2CN1CCC1CCN(Cc2ccccc2)CC1` [Example 5, 2-[4'-(1'-Benzylpiperidine)ethyl]-2,3-dihydro-1-oxypyrrolo[3,4-b]pyridine dihydrochloride], inhibition was half-maximal at 100 nM (IC50). In turn, `COc1cc2c(cc1OC)C(=O)N(CCC1CCN(Cc3ccccc3)CC1)C2` [Example 6, 2-[4'-Benzylpiperidine)ethyl]-2,3-dihydro-5,6-dimethoxyoxypyrrolo[3,4-]benzene hydrochloride] had an IC50 of 17 nM. Same read-out and setting: next, `CN1CC(=O)N(CCC2CCN(Cc3ccccc3)CC2)c2ccccc2C1` [Example 9, 1-[4'-(1'-Benzylpiperidine)ethyl-1,2,3,4-tetrahydro-4-methyl-5H-[1,4]-benzodiazepin-2-one dihydrochloride]: 51 nM; `O=C1CCCc2ccccc2N1CCC1CCN(Cc2ccccc2)CC1` [Example 10, 1-[4'-(1'-Benzylpiperidine)ethyl]-1,2,3,4-tetrahydro-5H-1-benzazepin-2-one hydrochloride]: 9 nM.

`CN1c2ccccc2C(=O)N(CCC2CCN(Cc3ccccc3)CC2)c2ccccc21` [Example 12, 10-[4'-(1'-Benzylpiperidine)ethyl]-10,11-dihydro-5-methyl-5H-dibenzo[b,e][1,4]diazepin-11-one hydrochloride] displayed an IC50 of 40 nM. The compound `O=C(NCCC1CCN(Cc2ccc(O)cc2)CC1)c1cnc2ccccc2n1` [Example 14, N-[4'-(1'-(p-Hydroxybenzyl)piperidine)ethyl]-2-quinoxalinecarboxylic amide hydrochloride] gave an IC50 of 38 nM. For `COc1cc(OC)cc(N(CCC2CCN(Cc3ccccc3)CC2)C(=O)C=Cc2ccc(F)cc2)c1` [Example 18, N-(3'5'-Dimethoxyphenyl)-N-[4'-(1'--benzylpiperidyl)-ethyl]-4-fluorocinnamamide hydrichloride], the IC50 was 680 nM. The same measure, in the same setting: as for `O=C(NCC1CCN(Cc2ccccc2)C1)c1ccccc1` (stereo not shown) [Example 21, N-[3'-(1'-Benzylpyrrolidine)methyl]benzamide hydrochloride], the figure is 50000 nM; as for `O=C(NCCC1CCN(Cc2ccccc2)CC1)c1ccoc1` [Example 24, N-[4'-(1'-Benzylpiperidine)ethyl]-3-furancarboxylic amide hydrochloride], 1100 nM; as for `O=C(CCCC1CCN(Cc2ccccc2)CC1)c1ccncc1` [Example 45], 360 nM.

`O=C(CCC1CCN(Cc2ccccc2)CC1)Nc1ccncc1` [Example 48]: the IC50 amounted to 19 nM.

Regarding `COc1ccc2c(c1)CCCC(=O)N2CCC1CCN(Cc2ccccc2)CC1` [Example 62], the IC50 amounted to 7.5 nM. The same measure, in the same setting: as for `COc1cccc2c1CCCC(=O)N2CCC1CCN(Cc2ccccc2)CC1` [Example 65], the figure is 1.6 nM.

With `COc1cc2c(cc1OC)C(=O)N(C)C(CCC1CCN(Cc3ccccc3)CC1)C2` (stereo not shown) [Example 67], the IC50 was found to be 100 nM. For `CN1CC(=O)N(CCC2CCN(Cc3ccccc3)CC2)c2ccccc2C1=O` [Example 70], the IC50 was determined as 280 nM.

The compound `CCOC(=O)c1nccnc1C(=O)NCCC1CCN(Cc2ccccc2)CC1` [Example 72] returned an IC50 of 20 nM. Turning to `O=C(c1cnccn1)N(CCC1CCN(Cc2ccccc2)CC1)c1ccccc1` [Example 95], the IC50 came out at 85 nM. Same read-out and setting: as for `CC(=O)N(CCC1CCN(Cc2ccccc2)CC1)c1ccncc1` [Example 101], the figure is 110 nM; as for `CN(CCC1CCN(Cc2ccccc2)CC1)C(=O)c1ccco1` [Example 120], 190 nM.

`O=C(NCCC1CCN(Cc2ccco2)CC1)c1ccccc1` [Example 124]: the midpoint of inhibition, the IC50, lay at 2800 nM.

Regarding `O=C1c2ccccc2Oc2ccccc2N1CCC1CCN(Cc2ccccc2)CC1` [Example 176], 4 nM corresponded to half-maximal inhibition (IC50).

The compound `CCOC(=O)N1CCC(CC2Cc3cc(OC)c(OC)cc3C2=O)CC1` (stereo not shown) [Example 182, 4-[(5,6-Dimethoxy-1-indanon)-2-yl]methyl-1-ethoxycarbonylpiperidine] came in with an IC50 of 800 nM.

In the case of `CCOC(=O)N1CCC(CC2=Cc3cc(OC)c(OC)cc3C2=O)CC1` [Example 183, 4-[(5,6-Dimethoxy-1-indenon)-2-yl]methyl-1-ethoxycarbonylpiperidine], it took 5300 nM to reach half-maximal inhibition (IC50). On the same count and under the same terms, next, `O=C1C(=CC2CCN(Cc3ccccc3)CC2)C(=O)c2ccccc21` [Example 184, 1-Benzyl-4-[(1,3-indanedion)-2-ylidenyl]methylpiperidine]: > 5000 nM; `COc1cc2c(cc1OC)CC(CC1CCN(Cc3ccccc3)CC1)=C2` [Example 185, 1-Benzyl-4-[(5,6-dimethoxyinden)-2-yl]methylpiperidine hydrochloride]: 0.82 nM. Same read-out and setting: next, `COc1cc2c(cc1OC)C(=O)C(=CCCC1CCN(Cc3ccccc3)CC1)C2` [Example 186, 1-Benzyl-4-[3-[(5,6-dimethoxy-1-indanon)-2-ylidenyl]]propylpiperidine hydrochloride]: 1.5 nM; `COc1cc2c(cc1OC)C(=O)C(CCCC1CCN(Cc3ccccc3)CC1)C2` (stereo not shown) [Example 187, 1-Benzyl-4-[3-[(5,6-dimethoxy-1-indanon)-2-yl]]propylpiperidine hydrochloride]: 4400 nM.

Still in this assay, the particulars now being: in vitro, mouse brain homogenate; Table 10; read-out: Inhibitory activity on AChE IC50.
As for `COc1cc2c(cc1OC)C(=O)C(CC1CCNCC1)C2` (stereo not shown) [Example 179, 4-[(5,6-Dimethoxy-1-indanon)-2-yl]methylpiperidine hydrochloride], the IC50 was 5400 nM.

Still in this assay, the particulars now being: read-out: AChE inhibitory activity IC50.
As for `O=C1Nc2ccccc2CN1CCC1CCN(Cc2ccccc2)CC1` [Example 8], the IC50 was 13 nM.

`O=C1c2ccccc2CCc2ccccc2N1CCC1CCN(Cc2ccccc2)CC1` [Example 11, N-[4-(1'-Benzylpiperidyl)ethyl]-5,6,11,12-tetrahydrodibenzo[b,f]azocin-6-one hydrochloride]: the IC50 is 68 nM.

Regarding `CC(=O)N(CCC1CCN(Cc2ccccc2)CC1)c1ccccc1` [Example 17, N-[4'-(1'-Benzylpiperidyl)ethyl]acetanilide], the IC50 was determined as 52 nM.

Regarding `O=C(CCC1CCN(Cc2ccccc2)CC1)Nc1ccccc1` [Example 20, 4-(1-Benzylpiperidine)propanailide hydrochloride], the IC50 amounted to 540 nM. Still for that read-out and setting: next, `COc1ccc(C(=O)CCCC2CCN(Cc3ccccc3)CC2)cc1` [Example 23, 4-[4'-N-Benzyl)piperidyl]-p-methoxybutyrophenone hydrochloride]: 72 nM; `CN(CCC1CCN(CC2CCCCC2)CC1)C(=O)c1ccccc1` [Example 27, N-[4'-(1'-Cyclohexylmethylpiperidyl)ethyl]-N-methylbenzamide hydrochloride]: 410 nM.

For `COc1cc2c(c(OC)c1)C(=O)C(CC1CCN(Cc3ccccc3)CC1)C2` (stereo not shown) [Example 31], the IC50 is 25 nM. For `O=C1c2ccccc2NCN1CCC1CCN(Cc2ccccc2)CC1` [Example 52], the IC50 is 800 nM. On to `O=C1c2ccccc2CCN1CCC1CCN(Cc2ccccc2)CC1` [Example 54], for which the IC50 worked out at 1000 nM. On to `O=C1Cc2ccccc2CN1CCC1CCN(Cc2ccccc2)CC1` [Example 56], for which the IC50 turned out to be 17 nM.

In the case of `O=C(c1ccc(F)cc1)N(CCC1CCN(Cc2ccccc2)CC1)c1ccccc1` [Example 89], the IC50 came to 18 nM.

The same assay, now with this note: read-out: Inhibitory activity on AChE IC50.
For `COc1cc2c(cc1OC)C(=O)C(CC1CCN(Cc3cccc(F)c3)CC1)C2` (stereo not shown) [Example 180, 1-(3-Fluorobenzyl)-4-[(5,6-dimethoxy-1-indanon)-2-yl]methylpiperidine hydrochloride], the IC50 was 1 nM.

Source of the values: patent US4895841A (priority 1987, dated 1990).
